Each structure is given as a SMILES string.

The subject of the first experiment is RS4; 11 with G101V mutation. Kind of experiment: In vitro anti-proliferation assay (ATPlite luminescence) in BCL-2-dependent ALL cell line RS4;11 with G101V mutation. It is filed as cell-based. The following applies: Homo sapiens, RS4-11, 72 h; read-out: RS411-G101V IC50. The procedure, abridged: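 IC50 came from luminescent ATP quantification (ATPlite) following cell lysis. Compound dose ranges were applied for roughly 72 h to about 1×10^4 G101V-mutant RS4;11 cells per well, in 10% FBS medium.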
As a reminder, the IC50 is the midpoint of a concentration-inhibition curve. In the case of `COc1ccc(CN2CCN(C3CC4(CCN(c5ccc(C(=O)NS(=O)(=O)c6cc7c(c([N+](=O)[O-])c6)N[C@H](C6CCOCC6)CO7)c(N6c7cc8cc[nH]c8nc7O[C@H]7COCC[C@@H]76)c5)CC4)C3)[C@H](c3ccccc3OC(C)C)C2)cn1` [Example 258, 4-(2-((R)-2-(2-isopropoxyphenyl)-4-((6-methoxypyridin-3-yl)methyl)piperazin-1-yl)-7-azaspiro[3.5]nonan-7-yl)-N-(((R)-5-nitro-3-(tetrahydro-2H-pyran-4-yl)-3,4-dihydro-2H-benzo[b][1,4]oxazin-7-yl)sulfonyl)-2-((5aS,9aR)-6,7,9,9a-tetrahydro-1H-pyrano[3,4-b]pyrrolo[3′,2′:5,6]pyrido[3,2-e][1,4]oxazin-5(5aH)-yl)benzamide], the IC50 came out at 11.7 nM.

Take `CC(C)Oc1ccccc1[C@@H]1CN([C@@H]2COc3c(F)cc(F)cc3C2)CCN1C1CC2(CCN(c3ccc(C(=O)NS(=O)(=O)c4cc5c(c([N+](=O)[O-])c4)N[C@H](C4CCOCC4)CO5)c(N4c5cc6cc[nH]c6nc5O[C@H]5COCC[C@@H]54)c3)CC2)C1` [Example 220, 4-(2-((R)-4-((S)-6,8-difluorochroman-3-yl)-2-(2-isopropoxyphenyl)piperazin-1-yl)-7-azaspiro[3.5]nonan-7-yl)-N-(((R)-5-nitro-3-(tetrahydro-2H-pyran-4-yl)-3,4-dihydro-2H-benzo[b][1,4]oxazin-7-yl)sulfonyl)-2-((5aS,9aR)-6,7,9,9a-tetrahydro-1H-pyrano[3,4-b]pyrrolo[3′,2′:5,6]pyrido[3,2-e][1,4]oxazin-5(5aH)-yl)benzamide]: the IC50 was 261 nM.

On to `CC(C)Oc1ccccc1[C@@H]1CN([C@H]2CCOc3c(F)cc(F)cc32)CCN1C1CC2(CCN(c3ccc(C(=O)NS(=O)(=O)c4cc5c(c([N+](=O)[O-])c4)N[C@H](C4CCOCC4)CO5)c(N4c5cc6cc[nH]c6nc5O[C@H]5COCC[C@@H]54)c3)CC2)C1` [Example 214, 4-(2-((R)-4-((S)-6,8-difluorochroman-4-yl)-2-(2-isopropoxyphenyl)piperazin-1-yl)-7-azaspiro[3.5]nonan-7-yl)-N-(((R)-5-nitro-3-(tetrahydro-2H-pyran-4-yl)-3,4-dihydro-2H-benzo[b][1,4]oxazin-7-yl)sulfonyl)-2-((5aS,9aR)-6,7,9,9a-tetrahydro-1H-pyrano[3,4-b]pyrrolo[3′,2′:5,6]pyrido[3,2-e][1,4]oxazin-5(5aH)-yl)benzamide], for which the IC50 stood at 385 nM.

Staying with this experiment, now noted: cellular anti-proliferative IC50, about 72 hours, medium with 10% FBS, ATPlite; read-out: RS411-G101V IC50.
As to `COc1cc(CN2CCN(C3CC4(CCN(c5ccc(C(=O)NS(=O)(=O)c6ccc(NCC7CCC(C)(O)CC7)c([N+](=O)[O-])c6)c(N6c7cc8cc[nH]c8nc7O[C@H]7COCC[C@@H]76)c5)CC4)C3)[C@@H](c3ccccc3OC(C)C)C2)cnc1N1CCOCC1` (stereo partly drawn) [Example 119, N-((4-((((1r,4r)-4-hydroxy-4-methylcyclohexyl)methyl)amino)-3-nitrophenyl)sulfonyl)-4-(2-((S)-2-(2-isopropoxyphenyl)-4-((5-(methoxy-d3)-6-morpholinopyridin-3-yl)methyl)piperazin-1-yl)-7-azaspiro[3.5]nonan-7-yl)-2-((5aS,9aR)-6,7,9,9a-tetrahydro-1H-pyrano[3,4-b]pyrrolo[3′,2′:5,6]pyrido[3,2-e][1,4]oxazin-5(5aH)-yl)benzamide], the IC50 was 14.6 nM.

As for `COc1ccc(CN2CCN(C3CC4(CCN(c5ccc(C(=O)NS(=O)(=O)c6ccc(NC[C@H]7CC[C@](C)(O)CC7)c([N+](=O)[O-])c6)c(N6c7cc8cc[nH]c8nc7O[C@H]7COCC[C@@H]76)c5)CC4)C3)[C@@H](c3ccccc3OC(C)C)C2)cc1` [Example 99, 2-[(3R,8S)-2,5-dioxa-9,15,17-triazatetracyclo[8.7.0.0^{3,8}.0^{12,16}]heptadeca-1(10),11,13,16-tetraen-9-yl]-4-{2-[(2S)-2-(2-isopropoxyphenyl)-4-[(4-methoxyphenyl)methyl]piperazin-1-yl]-7-azaspiro[3.5]nonan-7-yl}-N-[3-nitro-4-({[(1r,4r)-4-hydroxy-4-methylcyclohexyl]methyl}amino)benzenesulfonyl]benzamide], the IC50 was 38.5 nM.

Regarding `CC(C)Oc1ccccc1[C@H]1CN(C2CCC(C)(O)CC2)CCN1C1CC2(CCN(c3ccc(C(=O)NS(=O)(=O)c4ccc(NCC5CCC(C)(O)CC5)c([N+](=O)[O-])c4)c(N4c5cc6cc[nH]c6nc5O[C@H]5COCC[C@@H]54)c3)CC2)C1` (stereo partly drawn) [Example 109, 2-[(3R,8S)-2,5-dioxa-9,15,17-triazatetracyclo[8.7.0.0^{3,8}.0^{12,16}]heptadeca-1(10),11,13,16-tetraen-9-yl]-4-{2-[(2S)-2-(2-isopropoxyphenyl)-4-[(1s,4s)-4-hydroxy-4-methylcyclohexyl]piperazin-1-yl]-7-azaspiro[3.5]nonan-7-yl}-N-[3-nitro-4-({[(1r,4r)-4-hydroxy-4-methylcyclohexyl]methyl}amino)benzenesulfonyl]benzamide], the IC50 stood at 17.2 nM.

Regarding `Cc1ccccc1[C@@H]1CN(C2CCC(C)(O)CC2)CCN1C1CC2(CCN(c3ccc(C(=O)NS(=O)(=O)c4cc5c(c([N+](=O)[O-])c4)N[C@H](C4CCOCC4)CO5)c(N4c5cc6cc[nH]c6nc5O[C@H]5COCC[C@@H]54)c3)CC2)C1` (stereo partly drawn) [Example 200, 4-(2-((R)-4-((1s,4S)-4-hydroxy-4-methylcyclohexyl)-2-(o-tolyl)piperazin-1-yl)-7-azaspiro[3.5]nonan-7-yl)-N-(((R)-5-nitro-3-(tetrahydro-2H-pyran-4-yl)-3,4-dihydro-2H-benzo[b][1,4]oxazin-7-yl)sulfonyl)-2-((5aS,9aR)-6,7,9,9a-tetrahydro-1H-pyrano[3,4-b]pyrrolo[3′,2′:5,6]pyrido[3,2-e][1,4]oxazin-5(5aH)-yl)benzamide], the IC50 came out at 82.6 nM.

On to `CC(C)Oc1ccccc1[C@H]1CN(Cc2ccc3c(c2)OCCO3)CCN1C1CC2(CCN(c3ccc(C(=O)NS(=O)(=O)c4ccc(NCC5CCC(C)(O)CC5)c([N+](=O)[O-])c4)c(N4c5cc6cc[nH]c6nc5O[C@H]5COCC[C@@H]54)c3)CC2)C1` (stereo partly drawn) [Example 152, 4-(2-((S)-4-((2,3-dihydrobenzo[b][1,4]dioxin-6-yl)methyl)-2-(2-isopropoxyphenyl)piperazin-1-yl)-7-azaspiro[3.5]nonan-7-yl)-N-((4-((((1r,4r)-4-hydroxy-4-methylcyclohexyl)methyl)amino)-3-nitrophenyl)sulfonyl)-2-((5aS,9aR)-6,7,9,9a-tetrahydro-1H-pyrano[3,4-b]pyrrolo[3′,2′:5,6]pyrido[3,2-e][1,4]oxazin-5(5aH)-yl)benzamide], for which the IC50 was determined as 28.3 nM.

As for `CC(C)Oc1ccccc1[C@H]1CN(Cc2ccc(N3CCOCC3)cn2)CCN1C1CC2(CCN(c3ccc(C(=O)NS(=O)(=O)c4ccc(NCC5CCC(C)(O)CC5)c([N+](=O)[O-])c4)c(N4c5cc6cc[nH]c6nc5O[C@H]5COCC[C@@H]54)c3)CC2)C1` (stereo partly drawn) [Example 128, N-((4-((((1r,4r)-4-hydroxy-4-methylcyclohexyl)methyl)amino)-3-nitrophenyl)sulfonyl)-4-(2-((S)-2-(2-isopropoxyphenyl)-4-((5-morpholinopyridin-2-yl)methyl)piperazin-1-yl)-7-azaspiro[3.5]nonan-7-yl)-2-((5aS,9aR)-6,7,9,9a-tetrahydro-1H-pyrano[3,4-b]pyrrolo[3′,2′:5,6]pyrido[3,2-e][1,4]oxazin-5(5aH)-yl)benzamide], the IC50 came out at 22.2 nM.

Turning to `CC(C)Oc1ccccc1[C@@H]1CN(Cc2ccc(F)c(F)c2)CCN1C1CC2(CCN(c3ccc(C(=O)NS(=O)(=O)c4cc5c(c([N+](=O)[O-])c4)N[C@H](C4CCOCC4)CO5)c(N4c5cc6cc[nH]c6nc5O[C@@H]5CCOC[C@H]54)c3)CC2)C1` [Example 241, 4-{2-[(2R)-4-[(3,4-difluorophenyl)methyl]-2-(2-isopropoxyphenyl)piperazin-1-yl]-7-azaspiro[3.5]nonan-7-yl}-2-[(3R,8R)-5,9-dioxa-2,11,13-triazatetracyclo[8.7.0.0^{3,8}.0^{12,16}]heptadeca-1(10),11,14,16-tetraen-2-yl]-N-[(3R)-5-nitro-3-(oxan-4-yl)-3,4-dihydro-2H-1,4-benzoxazin-7-ylsulfonyl]benzamide], the IC50 came to 4.45 nM.

`COc1cc(CN2CCN(C3CC4(CCN(c5ccc(C(=O)NS(=O)(=O)c6ccc(NCC7CCOCC7)c([N+](=O)[O-])c6)c(N6c7cc8cc[nH]c8nc7O[C@H]7COCC[C@@H]76)c5)CC4)C3)[C@@H](c3ccccc3OC(C)C)C2)cnc1N1CCOCC1` [Example 133, 2-[(3R,8S)-2,5-dioxa-9,15,17-triazatetracyclo[8.7.0.0^{3,8}.0^{12,16}]heptadeca-1(10),11,13,16-tetraen-9-yl]-4-{2-[(2S)-2-(2-isopropoxyphenyl)-4-{[5-methoxy-6-(morpholin-4-yl)pyridin-3-yl]methyl}piperazin-1-yl]-7-azaspiro[3.5]nonan-7-yl}-N-{3-nitro-4-[(oxan-4-ylmethyl)amino]benzenesulfonyl}benzamide]: the IC50 was found to be 32.4 nM.

For `CC(C)Oc1ccccc1[C@@H]1CN([C@H]2CCOc3c2ccc(F)c3F)CCN1C1CC2(CCN(c3ccc(C(=O)NS(=O)(=O)c4cc5c(c([N+](=O)[O-])c4)N[C@H](C4CCOCC4)CO5)c(N4c5cc6cc[nH]c6nc5O[C@H]5COCC[C@@H]54)c3)CC2)C1` [Example 213, 4-{2-[(2R)-4-[(4S)-7,8-difluoro-3,4-dihydro-2H-1-benzopyran-4-yl]-2-(2-isopropoxyphenyl)piperazin-1-yl]-7-azaspiro[3.5]nonan-7-yl}-2-[(3R,8S)-2,5-dioxa-9,15,17-triazatetracyclo[8.7.0.0^{3,8}.0^{12,16}]heptadeca-1(10),11,13,16-tetraen-9-yl]-N-[(3R)-5-nitro-3-(oxan-4-yl)-3,4-dihydro-2H-1,4-benzoxazin-7-ylsulfonyl]benzamide], the IC50 is 23.8 nM.

These data come from patent publication US20250114374A1, “BCL-2 INHIBITORS” (Newave Pharmaceutical Inc., priority 2021, published 2025).
